Experimental data as given in patent publication US10201516B2 (The Regents of the University of California, priority 2014, dated 2019).

Assays:
[1] = system: NIH/3T3 cells; assay: Sphere formation assay in NIH/3T3 cells; assay type: cell-based, mouse; details: for sphere forming efficiency: K-Ras^V12 transformed NIH/3T3 cells (FIG. 10F); for sphere formation: vector control or H-Ras^V12 transformed NIH/3T3 (FIG. 10F)
Protocol: (§1) Tankyrase inhibitors, JW55, Cardinogenl, and JW67, were purchased from R&D Systems. The cells were treated with the inhibitors at 0.5 μM for 12 hours for TOPFlash assays. For sphere formation assays, the cells were cultured in complete medium with different Tankyrase inhibitors.
Cells were harvested, counted and seeded into Ultra Low Attachment Culture 96-well plate (Corning Life Science, Catalog number 3261) at 10 or 100 cells per well. The seeded cells and formed spheres were maintained in low serum containing medium with 0.1% FBS or CS. The initiated spheres were observed twice and week. The numbers of formed spheres were counted one month after seeding. The spheres were harvested and re-seeded into 12-well or 24-well plate with complete growth medium at one sphere per well. The re-plated colonies were stained and visualized by 0.05% crystal violet staining (in […]).

[2] = system: β-catenin/TCF/LEF transcriptional activity; assay: TOPFlash assay in NIH/3T3 cells; assay type: cell-based, mouse; details: for β-catenin/TCF/LEF transcriptional activity (TOPFlash): Ras^V12-transformed NIH/3T3 cells, 0.5 μM for 12 hours (FIG. 10E)
Protocol: as §1
Cells were transfected with TOPFlash (Addgene#12456), FOPFlash (Addgene#12457) or pGL3-NFAT (Addgene#17870) luciferase reporter constructs by using Fugene6 (Roche). 48th hour post-transfection the luciferase activities in cell lysates were measured using Bright-Glo Luciferase Assay System (Promega) according to the manufacturer's instructions.

[3] = system: CaMKii; assay: Western blot of phospho-CaMKii in Ras-transformed NIH/3T3 cells (and human pancreatic cancer cell lines); assay type: cell-based, mouse; details: NIH/3T3-H-Ras^V12 and vector control cells (FIG. 3B)
Protocol: (§2) Experimental cells were washed twice in ice-cold PBS and lysed in 1% Triton lysis buffer [25 mmol/L Tris pH 7.5, 150 mmol/L NaCl, 1% Triton X-100, 1 mmol/L EDTA, 1 mmol/L EGTA, 20 mmol/L NaF, 1 mmol/L […], and 1 mmol/L DTT] supplemented with a protease inhibitor cocktail (Roche) and cleared by centrifugation. Protein concentrations were determined by the Bio-Rad Protein Assay (Bio-Rad). Equal amounts of protein extracts were resolved using SDS-PAGE (NuPAGE; Invitrogen), transferred to a nitrocellulose membrane, and immunoblotted with primary antibodies indicated, followed by secondary antibodies labeled with either IRDye800 (Rockland) or Alexa Fluor 680 (Molecular Probes) and were visualized using a LI-COR Odyssey scanner. A complete list of primary antibodies is provided in the Extended Experimental Procedures.

[4] = system: Fzd8; assay: Western blot of Fzd8 expression in NIH/3T3 cells; assay type: cell-based, mouse; details: NIH/3T3-H-Ras^V12 cells (FIG. 3B)
Protocol: as §2

[5] = PKC activators, literature; cited from earlier work

| SMILES | sphere forming efficiency [1] | sphere formation [1] | β-catenin/TCF/LEF transcriptional activity (TOPFlash) [2] | sphere forming efficiency and size of spheroid colonies ([1]; NIH/3T3-H-Ras^V12 cells (FIG. 3D)) | β-catenin transcriptional activity ([2]; NIH/3T3-H-Ras^V12 cells (FIG. 3C)) | phosphorylation of CaMKii [3] | Fzd8 expression [4] | tumor promotion [5] |
| --- | --- | --- | --- | --- | --- | --- | --- | --- |
| COc1ccc(C2(CNC(=O)c3ccc(NC(=O)c4ccco4)cc3)CCOCC2)cc1 [JW55] | still maintained their sphere forming efficiency | inhibited sphere formation | successfully repressed β-catenin/TCF/LEF transcriptional activity | – | – | – | – | – |
| O=C1Nc2ccccc2C12OCC1(CO2)COC2(OC1)C(=O)Nc1ccccc12 (centres unmarked) [JW67] | still maintained their sphere forming efficiency | inhibited sphere formation | successfully repressed β-catenin/TCF/LEF transcriptional activity | – | – | – | – | – |
| COc1ccc(S(=O)(=O)N(CCO)c2ccccc2CN(C)C/C=C/c2ccc(Cl)cc2)cc1 [KN-93] | – | – | – | dramatically enhanced the sphere forming efficiency and the size of spheroid colonies | increased β-catenin transcriptional activity | reduced phosphorylation of CaMKii | reduced Fzd8 expression | – |
| CCCCCCCCCCCCCC(=O)O[C@@H]1[C@@H](C)[C@@]2(O)[C@@H](C=C(CO)C[C@]3(O)C(=O)C(C)=C[C@@H]23)[C@@H]2C(C)(C)[C@]12OC(C)=O [PMA, phorbol-12-myristate-13-acetate, reference compound] | – | – | – | – | – | – | – | tumor promoting |
| c1coc(-c2nnc3sc(C4CCCCC4)nn23)c1 [cardionogen1] | still maintained their sphere forming efficiency | inhibited sphere formation | successfully repressed β-catenin/TCF/LEF transcriptional activity | – | – | – | – | – |
